# Reference: patent EP1900728A1 (Genecare Research Institute Co., Ltd, priority 2005, dated 2006)
# Biological target: T1, IκBα ubiquitinating enzyme (SCF complex: ROC1, Cullin1, Skp1, His-TrCP1; with E1, UbcH5b) (Homo sapiens, UniProt P62877+P63208+Q13616+Q9Y297)
# T1 construct: His (polyhistidine); made in house; host or cells: insect cells (baculovirus) for the SCF complex and His-E1; E. coli for His-UBCH5b
# Assay: Measurement of ubiquitinating enzyme activity (IκBα ubiquitination, time-resolved fluorescence with Eu(K)-labeled ubiquitin and XL665-labeled anti-GST antibody)
# Assay type: biochemical
# Conditions: enzyme activity inhibition test, method (1), Table 5; read-out: EVALUATION
# Experimental: Method 1: Measurement of ubiquitinating enzyme activity
# A recombinant vector His-UBCH5b containing a polyhistidine tag (His) and UBCH5b was prepared. E. coli was transformed with the vector, the protein was expressed, and affinity purification was carried out using Ni-NTA agarose (Qiagen). Four types of recombinant baculoviruses (ROC1, Cullin1, Skp1, and His-TrCP1) were prepared for the SCF complex protein, insect cells were infected in quadruplicate for expression, and affinity purification was carried out using Ni-NTA agarose. Recombinant baculoviruses His-IKKβ, His-E1 were prepared. The insect cells were infected with each of those for expression, and affinity purification was carried out using Ni-NTA agarose. A recombinant vector GST-IκBα was prepared by fusing glutathione-S-transferase tag (GST) and IκBα, E. coli was transformed with the vector for the protein expression, and affinity purification was carried out using glutathione sepharose (Amersham Biosciences). Genetic transformants were prepared by PCR amplification followed by recombination, all of which were based on published human-derived sequences.
# Phosphorylation reaction of IκBα was performed by incubating the above-mentioned assay buffer (50 mM Tris-HCl (pH7.4), 2 mM ATP, 5 mM MgCl2, 0.5 mM DTT, 0.1% BSA) containing IκBα and IKKβ at room temperature for 1 hour. Ubiquitination reactions were carried out as follows. Compound samples at various concentrations, ubiquitin, Eu (K)-labeled ubiquitin, E1, UbcH5b, and SCF complex were added to phosphorylated IκBα, and then this was incubated at room temperature for 30 minutes. The reaction was terminated by adding EDTA, the above-mentioned revelation buffer (100 mM phosphate buffer (pH7.0), 0.5 M KF, 0.1% BSA) containing XL665-labeled anti-GST antibody was added and this was left to stand at room temperature for 2 hours. Measurements were made using ARVO-HTS (Perkin Elmer). The ratio of fluorescence intensities at 620 nm and 665 nm (Em 665 nm/Em 620 nm x 10,000) with excitation light at 337 nm was measured.
# The ubiquitination level without the addition of a compound sample was used as the control value, and the level in the absence of SCF complex was used as the blank value for the assays. Inhibitory activities of the compounds were indicated as % inhibition = 100 - (value with a compound sample added - blank value) / (control value - blank value) x 100. IC50 was indicated as the concentration of the compound showing 50% inhibition. Eu (K)-labeled ubiquitin, XL665-labeled anti-GST antibody, and XL665-labeled anti-His antibody were purchased from CIS bio international. Costar solid black plates (96 wells) were used for the assays.
# T1 sequence (Q9Y297 whole entry): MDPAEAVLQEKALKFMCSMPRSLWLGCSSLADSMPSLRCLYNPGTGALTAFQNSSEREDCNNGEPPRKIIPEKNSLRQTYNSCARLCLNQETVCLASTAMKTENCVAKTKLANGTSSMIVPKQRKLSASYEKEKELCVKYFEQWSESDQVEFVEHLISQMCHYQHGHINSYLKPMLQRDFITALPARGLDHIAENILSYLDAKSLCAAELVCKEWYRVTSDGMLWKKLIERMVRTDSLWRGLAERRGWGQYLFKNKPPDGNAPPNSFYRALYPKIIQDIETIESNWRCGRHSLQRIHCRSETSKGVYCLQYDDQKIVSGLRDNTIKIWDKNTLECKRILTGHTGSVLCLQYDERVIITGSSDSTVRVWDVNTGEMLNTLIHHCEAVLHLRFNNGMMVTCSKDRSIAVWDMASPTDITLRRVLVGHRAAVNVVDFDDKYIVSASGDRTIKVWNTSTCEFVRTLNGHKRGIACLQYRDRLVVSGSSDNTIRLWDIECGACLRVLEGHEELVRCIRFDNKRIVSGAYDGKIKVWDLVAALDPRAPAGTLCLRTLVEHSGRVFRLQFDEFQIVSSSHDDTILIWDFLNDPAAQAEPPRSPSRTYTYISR
# T1 sequence (Q13616 whole entry): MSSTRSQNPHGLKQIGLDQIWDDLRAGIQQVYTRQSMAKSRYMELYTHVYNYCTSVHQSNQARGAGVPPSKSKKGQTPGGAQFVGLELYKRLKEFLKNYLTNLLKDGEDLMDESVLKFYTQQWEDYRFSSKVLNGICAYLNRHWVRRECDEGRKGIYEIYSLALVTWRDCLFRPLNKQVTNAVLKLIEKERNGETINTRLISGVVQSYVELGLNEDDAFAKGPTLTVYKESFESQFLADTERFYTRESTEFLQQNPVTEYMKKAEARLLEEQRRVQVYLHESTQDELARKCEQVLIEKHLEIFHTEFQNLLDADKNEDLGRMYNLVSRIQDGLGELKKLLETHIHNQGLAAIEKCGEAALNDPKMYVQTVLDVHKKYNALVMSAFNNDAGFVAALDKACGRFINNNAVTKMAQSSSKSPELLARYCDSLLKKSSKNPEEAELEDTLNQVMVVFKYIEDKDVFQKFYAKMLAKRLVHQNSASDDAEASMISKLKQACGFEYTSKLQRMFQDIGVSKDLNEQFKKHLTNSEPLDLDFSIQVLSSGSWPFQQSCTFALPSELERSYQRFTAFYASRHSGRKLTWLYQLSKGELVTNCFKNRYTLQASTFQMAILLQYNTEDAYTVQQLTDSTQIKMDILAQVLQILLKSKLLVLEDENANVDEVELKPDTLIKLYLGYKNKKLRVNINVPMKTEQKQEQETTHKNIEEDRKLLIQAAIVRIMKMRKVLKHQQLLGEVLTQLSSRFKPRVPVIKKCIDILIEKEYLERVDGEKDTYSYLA
# T1 sequence (P63208 whole entry): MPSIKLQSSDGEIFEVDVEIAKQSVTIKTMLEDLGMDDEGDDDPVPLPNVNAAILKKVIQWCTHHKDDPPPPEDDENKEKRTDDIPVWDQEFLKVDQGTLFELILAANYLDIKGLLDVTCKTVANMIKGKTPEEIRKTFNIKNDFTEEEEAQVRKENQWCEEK
# T1 sequence (P62877 whole entry): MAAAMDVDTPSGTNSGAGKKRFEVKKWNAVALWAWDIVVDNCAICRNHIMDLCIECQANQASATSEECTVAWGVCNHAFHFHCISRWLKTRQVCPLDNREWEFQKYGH
row,Structure (SMILES),IC50 [µM]
1,CC1=NN(c2ccccc2)C(=O)/C1=C\c1ccc(OCCCN(C)C)cc1 [Compound 217],< 40
2,O=C(O)c1ccc(N2N=C(c3ccccn3)/C(=C/c3ccc(N4CCC(O)CC4)s3)C2=O)cc1 [Compound 293],< 40
3,COc1ccc(C2=NN(c3ccccc3)C(=O)/C2=C\c2ccc(CO)o2)cc1 [Compound 90],< 40
4,COc1cc(/C=C2\C(=O)N(c3cccc(S(N)(=O)=O)c3)N=C2C)ccc1OCc1c(C)noc1C [Compound 153],< 40
5,COC(=O)c1ccc(COc2ccc(/C=C3\C(=O)N(c4ccccc4)N=C3C)cc2OC)cc1 [Compound 122],< 40
6,CC1=NN(c2cccc(C(=O)O)c2)C(=O)/C1=C\c1c(C)nn(C)c1Cl [Compound 513],< 40
7,O=C1/C(=C\c2cccc3nccnc23)C(C2CC2)=NN1c1ccccc1 [Compound 72],< 40
8,CCCCC1=NN(c2ccccc2)C(=O)C1=Cc1ccc(N2CCN(C)CC2)cc1 [Compound 106],< 40
9,CCCCC1=NN(c2ccccc2)C(=O)/C1=C\c1ccc2ccccc2c1 [Compound 51],< 40
10,O=C1/C(=C\c2ccc3c(c2)OCCO3)C(c2cccnc2)=NN1c1ccccc1 [Compound 66],< 40
11,COc1cc(/C=C2\C(=O)N(c3ccccc3)N=C2c2ccncc2)ccc1O [Compound 40],< 40
12,CCOC(=O)CN1CCN(c2ccc(/C=C3\C(=O)N(c4cccc(C(=O)O)c4)N=C3C)cc2)CC1 [Compound 446],< 40
13,O=C1/C(=C\c2ccc(-n3cccn3)cc2)C(C2CC2)=NN1c1ccccc1 [Compound 79],< 40
14,COc1cc(/C=C2/C(=O)N(c3cccc(N)c3)N=C2C)ccc1O [Compound 198],< 40
15,COCC1=NN(c2ccccc2)C(=O)/C1=C\c1ccc(N2CCN(C(=O)OC)CC2)cc1 [Compound 5],< 40
16,CC1=NN(c2ccccc2)C(=O)/C1=C\c1ccc(OCC(=O)N(C)C)cc1 [Compound 206],< 40
17,CCCCC1=NN(c2ccccc2)C(=O)/C1=C\c1nccs1 [Compound 105],< 40
18,O=C1/C(=C\c2ccc(-n3cncn3)cc2)C(C2CC2)=NN1c1ccccc1 [Compound 80],< 40
19,CCCCC1=NN(c2ccccc2)C(=O)/C1=C\c1ccc(OCc2ccccc2)c(OC)c1 [Compound 52],< 40

row,Structure (SMILES),IC50 [µM]
1,CC1=NN(c2cccc(C(=O)NCC3CC3)c2)C(=O)/C1=C\c1ccc2c(c1)OCCO2 [Compound 404],< 40
2,COc1cc(/C=C2\C(=O)N(c3ccc(S(N)(=O)=O)cc3)N=C2C)ccc1OCc1c(C)noc1C [Compound 158],< 40
3,O=C(O)c1ccc(N2N=C(Cc3ccccc3)/C(=C/c3nccs3)C2=O)cc1 [Compound 270],< 40
4,CCOC(=O)c1ccc(COc2ccc(/C=C3\C(=O)N(c4cccc(C(=O)O)c4)N=C3C)cc2OC)o1 [Compound 395],< 40
5,CC1=NN(c2ccc(C(=O)NCC(C)O)cc2)C(=O)C1=Cc1ccc2c(c1)OCCO2 (stereo not shown) [Compound 400],< 40
6,CC1=NN(c2ccc(S(=O)(=O)N3CCC(O)CC3)cc2)C(=O)/C1=C\c1ccc2c(c1)OCO2 [Compound 162],< 40
7,CC1=NN(c2cccc(S(N)(=O)=O)c2)C(=O)/C1=C\c1ccc(N2CCCC2CO)cc1 (stereo not shown) [Compound 174],< 40
8,COc1cc(C=C2C(=O)N(c3ccc(S(N)(=O)=O)cc3)N=C2C)ccc1OCC1CCCCC1 [Compound 161],< 40
9,COc1cc(/C=C2\C(=O)N(c3ccc(C(=O)O)cc3)N=C2c2ccncc2)ccc1O [Compound 286],10 to 20
10,COc1ccc(C2=NN(c3ccc(C(=O)O)cc3)C(=O)/C2=C\c2cccc3nccnc23)cc1OC [Compound 278],< 40
11,CC1=NN(c2cccc(C(=O)O)c2)C(=O)/C1=C\c1ccc2c(c1)OCCO2 [Compound 402],10 to 20
12,COc1cc(/C=C2\C(=O)N(C)N=C2C)ccc1O [Compound 132],< 40
13,COc1cc(/C=C2\C(=O)N(c3ccc(C(=O)O)cc3)N=C2c2ccc(OC)c(OC)c2)ccc1O [Compound 332],10 to 20
14,COCC1=NN(c2cccc(C(=O)O)c2)C(=O)/C1=C\c1ccc(N2CCCC2)cc1 [Compound 471],10 to 20
15,COc1cc(/C=C2\C(=O)N(c3cccc(C(=O)O)c3)N=C2C)ccc1OCc1c(C)noc1C [Compound 394],10 to 20
16,O=C1/C(=C\c2ccc(-n3cccn3)cc2)C(c2cccnc2)=NN1c1ccccc1 [Compound 67],< 40
17,O=C1/C(=C\c2ccc3ccccc3c2)C(Cc2ccccc2)=NN1c1ccccc1 [Compound 23],< 40
18,O=C(O)c1cccc(N2N=C(c3ccoc3)/C(=C/c3ccc(CO)o3)C2=O)c1 [Compound 488],10 to 20
19,COC(=O)N1CCN(c2ccc(C=C3C(=O)N(c4ccc(C(=O)O)cc4)N=C3c3ccncc3)cc2)CC1 [Compound 344],< 40

# Second part, the molecule after the results:
row,IC50 [µM],Structure (SMILES)
1,< 10,CC1=NN(c2cccc(C(=O)O)c2)C(=O)/C1=C\c1ccc(N2CCN(C(=O)c3cnoc3)CC2)cc1 [Compound 445]
2,< 10,CC1=NN(c2ccc(C(=O)O)cc2)C(=O)C1=Cc1c[nH]c2ccc(Cl)cc12 [Compound 378]
3,< 10,CC1=NN(c2cccc(C(=O)O)c2)C(=O)/C1=C\c1ccc(N2CCC(C(=O)O)CC2)cc1 [Compound 424]
4,10 to 20,COc1cc(/C=C2\C(=O)N(c3ccc(C(=O)O)cc3)N=C2c2ccccn2)ccc1OCc1ccccc1 [Compound 289]
5,10 to 20,O=C(O)c1ccc(N2N=C(Cc3ccccc3)/C(=C/c3ccc4ccccc4c3)C2=O)cc1 [Compound 264]
6,10 to 20,CC1=NN(c2ccc(S(N)(=O)=O)cc2)C(=O)/C1=C\c1ccc(N2CCC(CO)CC2)cc1 [Compound 171]
7,10 to 20,CC1=NN(c2ccc(C(=O)NCc3ccc4c(c3)OCO4)cc2)C(=O)/C1=C\c1ccc2c(c1)OCCO2 [Compound 397]
8,10 to 20,O=C(O)c1ccc(N2N=C(c3ccncc3)C(=Cc3ccc4c(c3)OCCO4)C2=O)cc1 [Compound 288]
9,10 to 20,COc1cc(/C=C2\C(=O)N(c3cccc(S(N)(=O)=O)c3)N=C2C)ccc1OCn1nnc2ccccc21 [Compound 157]
10,< 10,CC1=NN(c2ccc(C(=O)N3CCC(C(=O)O)CC3)cc2)C(=O)/C1=C\c1ccc2[nH]ccc2c1 [Compound 352]
11,< 10,CC1=NN(c2cccc(C(=O)O)c2)C(=O)/C1=C\c1ccc2occc2c1 [Compound 368]
12,10 to 20,COc1cc(/C=C2\C(=O)N(c3ccc(C(=O)O)cc3)N=C2c2cccnc2)ccc1O [Compound 337]
13,10 to 20,COc1cc(/C=C2\C(=O)N(c3ccccc3)N=C2Cc2ccccc2)ccc1O [Compound 22]
14,10 to 20,O=C(O)c1ccc(N2N=C(Cc3ccccc3)/C(=C/c3ccc(-n4cccn4)cc3)C2=O)cc1 [Compound 275]
15,10 to 20,CC1=NN(c2cccc(C(=O)O)c2)C(=O)/C1=C\c1ccc(N2CCC(N3CCCC3)CC2)cc1 [Compound 435]
16,< 10,CC1=NN(c2ccc(S(N)(=O)=O)cc2)C(=O)C1=Cc1ccc(NC(=O)c2ccco2)cc1 [Compound 231]
17,10 to 20,CCCNC(=O)COc1ccc(/C=C2\C(=O)N(c3ccc(C(=O)O)cc3)N=C2C)cc1 [Compound 534]
18,< 10,CC1=NN(c2ccc(C(=O)N3CCOCC3)cc2)C(=O)/C1=C\c1ccc2[nH]ccc2c1 [Compound 357]
19,10 to 20,CCCCC1=NN(c2cccc(C(=O)O)c2)C(=O)/C1=C\c1ccc2c(c1)OCCO2 [Compound 470]
20,< 10,COc1cc(/C=C2\C(=O)N(c3ccccc3)N=C2C2CC2)ccc1OCc1ccccc1 [Compound 71]
21,10 to 20,CC1=NN(c2cccc(C(=O)O)c2)C(=O)/C1=C\c1ccc(N2CCCC2CO)cc1 (stereo not shown) [Compound 422]
22,10 to 20,CC1=NN(c2cccc(C(=O)O)c2)C(=O)/C1=C\c1ccc(S(=O)(=O)O)o1 [Compound 520]
23,< 10,CC1=NN(c2cccc(S(N)(=O)=O)c2)C(=O)/C1=C\c1cccc2cc[nH]c12 [Compound 140]
24,< 10,CC1=NN(c2cccc(C(=O)O)c2)C(=O)/C1=C\c1ccc(N2CCC(CO)CC2)cc1 [Compound 421]
25,< 10,O=C1/C(=C\c2ccc(-c3ccccc3F)o2)C(c2ccoc2)=NN1c1ccccc1 [Compound 15]
26,10 to 20,O=C(O)c1ccc(N2N=C(c3cccnc3)/C(=C/c3ccc(-c4ccccc4F)o3)C2=O)cc1 [Compound 339]
